{"source": "patent US20070128669A1", "about": "“Serum-free expansion of cells in culture” (Institute for Chemical Genomics, priority 2005, published 2007)", "molecules": {"B1": {"name": "Wnt3a: purified Wnt3a protein purchased from R&D Systems (protein, UniProt P56704 19-352, looked up)", "Protein Wnt-3a": "SYPIWWSLAVGPQYSSLGSQPILCASIPGLVPKQLRFCRNYVEIMPSVAEGIKIGIQECQHQFRGRRWNCTTVHDSLAIFGPVLDKATRESAFVHAIASAGVAFAVTRSCAEGTAAICGCSSRHQGSPGKGWKWGGCSEDIEFGGMVSREFADARENRPDARSAMNRHNNEAGRQAIASHMHLKCKCHGLSGSCEVKTCWWSQPDFRAIGDFLKDKYDSASEMVVEKHRESRGWVETLRPRYTYFKVPTERDLVYYEASPNFCEPNPETGSFGTRDRTCNVSSHGIDGCDLLCCGRGHNARAERRREKCRCVFHWCCYVSCQECTRVYDVHTCK"}}, "key": {"[1]": {"biological_target": "T1, CBP/β-catenin complex (Mus musculus, UniProt P45481)", "T1 construct": "endogenous in cells; host or cells: P19 cells (nuclear fraction)", "T1 sequence (P45481 2-2441 limits assumed, one chain of several)": "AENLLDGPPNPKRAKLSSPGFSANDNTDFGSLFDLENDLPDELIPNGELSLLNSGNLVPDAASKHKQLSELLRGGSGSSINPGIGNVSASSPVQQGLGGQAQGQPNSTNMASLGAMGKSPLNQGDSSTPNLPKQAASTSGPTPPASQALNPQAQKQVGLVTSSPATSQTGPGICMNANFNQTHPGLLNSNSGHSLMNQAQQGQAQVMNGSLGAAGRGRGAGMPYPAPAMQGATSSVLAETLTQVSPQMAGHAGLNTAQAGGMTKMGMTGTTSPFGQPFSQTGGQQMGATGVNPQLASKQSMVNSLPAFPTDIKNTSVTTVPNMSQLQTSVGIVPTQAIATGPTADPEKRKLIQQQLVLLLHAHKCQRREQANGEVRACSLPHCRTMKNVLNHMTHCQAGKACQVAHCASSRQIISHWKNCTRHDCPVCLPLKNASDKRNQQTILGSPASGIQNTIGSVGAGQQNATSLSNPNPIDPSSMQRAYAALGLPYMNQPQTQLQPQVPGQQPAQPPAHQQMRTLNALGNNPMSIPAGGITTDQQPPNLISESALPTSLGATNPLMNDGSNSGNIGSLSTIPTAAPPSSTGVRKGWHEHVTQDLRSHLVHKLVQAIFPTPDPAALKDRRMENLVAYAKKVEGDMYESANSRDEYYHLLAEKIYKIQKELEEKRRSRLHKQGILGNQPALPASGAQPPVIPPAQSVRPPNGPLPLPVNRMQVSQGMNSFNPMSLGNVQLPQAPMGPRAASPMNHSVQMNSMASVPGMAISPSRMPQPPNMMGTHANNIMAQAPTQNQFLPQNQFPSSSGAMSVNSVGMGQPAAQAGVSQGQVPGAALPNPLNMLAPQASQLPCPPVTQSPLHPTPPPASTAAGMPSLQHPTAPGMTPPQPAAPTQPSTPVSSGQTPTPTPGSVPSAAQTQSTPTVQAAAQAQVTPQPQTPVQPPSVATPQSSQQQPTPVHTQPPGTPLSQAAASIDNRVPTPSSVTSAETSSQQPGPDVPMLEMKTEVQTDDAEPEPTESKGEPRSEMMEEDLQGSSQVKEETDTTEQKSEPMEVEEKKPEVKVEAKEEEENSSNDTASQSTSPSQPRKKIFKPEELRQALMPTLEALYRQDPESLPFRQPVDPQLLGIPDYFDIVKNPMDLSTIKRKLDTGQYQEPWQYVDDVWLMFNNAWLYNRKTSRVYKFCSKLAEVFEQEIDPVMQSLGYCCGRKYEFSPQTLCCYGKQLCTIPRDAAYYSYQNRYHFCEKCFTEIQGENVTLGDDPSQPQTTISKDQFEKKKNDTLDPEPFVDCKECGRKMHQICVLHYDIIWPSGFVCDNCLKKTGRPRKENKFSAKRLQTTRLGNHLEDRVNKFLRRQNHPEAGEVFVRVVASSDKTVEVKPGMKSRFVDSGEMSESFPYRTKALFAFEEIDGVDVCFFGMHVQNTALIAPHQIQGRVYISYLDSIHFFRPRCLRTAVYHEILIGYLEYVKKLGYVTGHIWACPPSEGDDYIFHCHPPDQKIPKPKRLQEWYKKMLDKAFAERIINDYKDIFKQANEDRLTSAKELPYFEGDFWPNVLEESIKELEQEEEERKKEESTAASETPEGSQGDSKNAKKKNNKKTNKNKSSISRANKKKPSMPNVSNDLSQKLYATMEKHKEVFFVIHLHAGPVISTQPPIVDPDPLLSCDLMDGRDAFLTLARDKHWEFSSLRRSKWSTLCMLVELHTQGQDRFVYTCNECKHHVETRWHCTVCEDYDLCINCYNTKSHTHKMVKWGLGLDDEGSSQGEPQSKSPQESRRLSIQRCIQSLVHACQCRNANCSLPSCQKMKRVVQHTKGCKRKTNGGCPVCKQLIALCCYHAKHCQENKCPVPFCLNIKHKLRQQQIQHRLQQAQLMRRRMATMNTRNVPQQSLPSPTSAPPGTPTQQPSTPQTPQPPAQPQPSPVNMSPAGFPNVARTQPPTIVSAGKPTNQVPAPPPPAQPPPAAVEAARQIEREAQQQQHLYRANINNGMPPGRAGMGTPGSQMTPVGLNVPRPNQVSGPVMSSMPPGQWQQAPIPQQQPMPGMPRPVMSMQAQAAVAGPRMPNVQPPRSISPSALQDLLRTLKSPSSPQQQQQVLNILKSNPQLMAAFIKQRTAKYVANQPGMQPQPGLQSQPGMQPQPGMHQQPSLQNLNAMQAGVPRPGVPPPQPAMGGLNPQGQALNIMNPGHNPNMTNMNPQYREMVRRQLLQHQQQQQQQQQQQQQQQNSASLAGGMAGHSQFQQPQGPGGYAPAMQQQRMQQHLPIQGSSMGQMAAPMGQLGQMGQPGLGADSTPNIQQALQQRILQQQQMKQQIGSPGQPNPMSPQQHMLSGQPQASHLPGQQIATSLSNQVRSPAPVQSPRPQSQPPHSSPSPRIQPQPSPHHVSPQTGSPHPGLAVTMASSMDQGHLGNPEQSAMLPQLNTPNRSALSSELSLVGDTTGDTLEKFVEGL", "experiment": "Co-immunoprecipitation of β-catenin with CBP in P19 cells", "assay_type": "cell-based", "conditions": "Wnt3a, 10 μM, 24 hours", "description": "(§1) Co-immunoprecipitation of β-catenin with CBP or p300 in P19 cells. Co-immunoprecipitation was performed as described in (27). Briefly, P19 cells were treated with 10 μM ICG-001 or 10 μM IQ-1 (control DMSO was 0.025%) for 24 hours, after which they were washed and lysed […]. Nuclear fraction was isolated and precleared with antibodies to CBP(A-22) or p300(N-15). β-catenin was detected using a mouse monoclonal antibody (Becton Dickinson) at a dilution of 1:5000."}, "[2]": {"system": "p300/β-catenin complex", "experiment": "Co-immunoprecipitation of β-catenin with p300 in P19 cells", "assay_type": "cell-based", "conditions": "Wnt3a, 10 μM, 24 hours", "description": "as §1"}, "[3]": {"system": "C2C12 myoblasts", "experiment": "Differentiation of C2C12 myoblasts in growth medium", "assay_type": "cell-based", "conditions": "10 μM in growth medium", "description": "FIG. 12. FIG. 12 illustrates that differentiation of C2C12 myoblasts was induced by 10 μM ICG-001 in growth medium, similar to differentiation medium."}, "[4]": {"system": "Nanog gene expression in ESCs", "experiment": "Real-time RT-PCR for Nanog in feeder-free ESCs", "assay_type": "cell-based, mouse", "conditions": "feeder-free ESCs; IQ-1 4 μg/ml or LIF 1000 U/ml, 21 hrs", "description": "FIG. 2. […] Real-time RT-PCR for Nanog was performed. The control expression level of Nanog at day 0 was set at 1. FIG. 2B, removal of IQ-1 decreases Nanog gene expression in ESCs. IQ-1 was removed from ESCs which had been cultured under feeder-free system and in the presence of IQ-1 (4 μg/ml), for three days. At the end of this period, mRNA was isolated and real-time RT-PCR was performed to assay for Nanog gene expression. FIG. 2C, effects of IQ-1 were not mediated through Stat3 signaling pathway as judged by luciferase reporter assay. Feeder-free ESCs, transfected with the pSTAT3-TA-Luc reporter, were exposed to IQ-1 at the indicated doses, or LIF. All error bars represent mean±SD.\nReal-time RT-PCR. Total RNA was isolated and reverse-transcribed using SuperScript III (Invitrogen). Real-time RT-PCR (Sybr Green; BioRad) was performed using with the gene-specific primers: […]"}, "[5]": {"system": "Stat3 signaling pathway", "experiment": "pSTAT3-TA-Luc luciferase reporter assay in ESCs", "assay_type": "cell-based, mouse", "conditions": "24 hours exposure", "description": "Transfection and Luciferase assay. ESCs were cultured in 96-well cell culture dishes coated with a 0.1% aqueous gelatin solution and transfected with 0.2 μg/well of pSTAT3-TA-Luc (CLONTECH), using Lipofectamine 2000 (Invitrogen). After 6 hours, cells were washed and exposed to either IQ-1 at the indicated doses, or LIF, for 24 hours. Transfection efficiencies were normalized with pRL-null luciferase plasmid. Luciferase assays were performed with the DUAL-Luciferase Reporter Assay System (Promega)."}, "[6]": {"system": "ESCs", "experiment": "Long term feeder-free culture of ESCs in serum-free (15% KSR) media", "assay_type": "cell-based, mouse", "description": "FIG. 7. […] ESCs were cultured in 15% KSR, 4 μg/ml of IQ-1 and 100 ng/ml Wnt3a. ESCs were passaged 2-3 times per week at 1×10^5-1×10^6 cells per 6 cm dish and cells were counted.\nFIG. 8. […] AP activity of ESCs cultured for 7 days in IQ-1 containing media supplemented with 15% FCS or 15% KSR. […] (Error bars represent ±S.D.)\nFIG. 9. […] Over the 42-day culture period, ESCs cultured in the media in the presence of IQ-1 and Wnt3a maintain expression of the pluripotency markers, (a) Nanog, (b) Oct3/4 and (c) Rex-1. The expression level on day 0 was set as 1.\nCell culture. ESCs, D3ES (ATCC CRL-1934) were maintained on Mitomycin C treated MEFs in mouse ESC medium containing DMEM (Invitrogen) supplemented with 15% FBS (Invitrogen), 0.1 mM MEM nonessential amino acids (Invitrogen), 0.1 mM 2-mercaptoethanol (Sigma), 2 mM L-glutamine (Invitrogen) and 1,000 U/ml LIF (CHEMICON). To remove MEFs, cells were collected by trypsinization and plated on gelatin-coated culture dishes for 20 min. Non-adherent cells consisting mainly of ESCs were replated on gelatin-coated culture dishes again. Non-adherent cells were used for further experiments. P19 cells were cultured according to conditions recommended by the ATCC. Cells were incubated at 37° C. in a 5% CO2 incubator. Purified Wnt3a was purchased (R&D Systems)."}}}
{"molecule": "O=C1[C@H](Cc2ccc(O)cc2)N2C(=O)CCN(C(=O)NCc3ccccc3)[C@H]2CN1Cc1cccc2ccccc12", "note": "[ICG-001, reference compound]", "values": [{"measurement": "relative amount of β-catenin associated with CBP", "setting": "[1]", "value": "at the expense of the CBP/β-catenin interaction"}, {"measurement": "p300/β-catenin interaction", "setting": "[2]", "value": "significantly enhanced the p300/β-catenin interaction"}, {"measurement": "differentiation of C2C12 myoblasts", "setting": "[3]", "value": "induced the differentiation of C2C12 myoblasts"}]}
{"molecule": "LIF: cytokine leukemia inhibitory factor (CHEMICON)", "values": [{"measurement": "Nanog expression", "setting": "[4]", "value": "only slightly increased Nanog levels"}, {"measurement": "Stat3/luciferase expression", "setting": "[5]", "value": "elicited a significant response"}]}
{"molecule": "B1", "values": [{"measurement": "AP activity of ESCs on addition of Wnt3a to IQ-1 containing 15% KSR media", "setting": "[6]; 7 days, IQ-1 containing media, 15% KSR", "value": "increases AP activity"}, {"measurement": "ESC proliferation, Wnt3a alone", "setting": "[6]; KSR media", "value": "induced proliferation"}, {"measurement": "expression of stem cell markers Oct4, Nanog, Rex1, Wnt3a alone", "setting": "[6]; KSR media", "value": "not sufficient to maintain the expression"}, {"measurement": "maintenance of undifferentiated status of ESCs, agent alone", "setting": "[6]; KSR media, single agent", "value": "Neither Wnt3a nor IQ-1 alone was sufficient"}]}
